The source of these data is ChEMBL document CHEMBL4477224, “Antidiabetic effect, antioxidant activity, and toxicity of 3',4'-Di-O-acetyl-cis-khellactone in Streptozotocin-induced diabetic rats” (Bioorg Med Chem Lett, 2016).

Active and inactive are the calls of the source. The calls are words filed in the database; no cut-off is given here.

Data set [1] relates to Rattus norvegicus. Kind of data set: Antidiabetic activity in STZ-induced diabetic Wistar rat assessed as body weight at 15 mg/kg, po administered for 15 days post STZ challenge measured on day 21 (reference value: 319.4 +/- 6.9 g). The format is functional.
Data set [2] relates to Rattus norvegicus. Description: Antidiabetic activity in STZ-induced diabetic Wistar rat assessed as change in fasting blood glucose level at 15 mg/kg, po administered for 7 days post STZ challenge measured on day 14 by glucometry (reference value: 72.90 +/- 5.2 mg/dl). The format is functional.
In data set [3] the test system is Rattus norvegicus. Kind of data set: Antidiabetic activity in STZ-induced diabetic Wistar rat blood assessed as creatinine level at 15 mg/kg, po administered for 15 days (reference value: 0.56 +/- 0.03 mg/dl). It counts as functional.
Data set [4] relates to Rattus norvegicus. Description: Antidiabetic activity in STZ-induced diabetic Wistar rat blood assessed as cholesterol level at 15 mg/kg, po administered for 15 days (reference value: 80.09 +/- 9.35 mg/dl). The format is functional.
Data set [5] is described as follows: Toxicity in STZ-induced diabetic Wistar rat liver assessed as macroscopic pathologic lesions at 15 mg/kg, po administered for 15 days. It counts as organism-based. The settings on record: in vivo, 360 h.
The nature of data set [6]: Toxicity in STZ-induced diabetic Wistar rat kidney assessed as macroscopic pathologic lesions at 15 mg/kg, po administered for 15 days. The format is organism-based. To be noted: in vivo, 360 h.
Data set [7] has as its system Rattus norvegicus. Kind of data set: Antioxidant activity in STZ-induced diabetic Wistar rat liver assessed as SOD level measured per mg of protein at 15 mg/kg, po administered for 15 days by NBT reduction test (reference value: 0.22 +/- 0.06 microM/min). It counts as functional.
The subject of data set [8] is Rattus norvegicus. Description: Antidiabetic activity in STZ-induced diabetic Wistar rat liver assessed as effect on central vein architecture at 15 mg/kg, po administered for 15 days by hematoxylin/eosin staining based microscopy. It counts as functional, organism-based.
Data set [9] is described as follows: Mutagenicity in Salmonella typhimurium TA98 assessed as mutagenic index at 8.65 uM/plate after 48 hrs in presence of S9 fraction by Ames test relative to control. It counts as toxicity, subcellular. The settings on record: salmonella enterica subsp. enterica serovar typhimurium, s9, 48 h. In general terms: In the Ames test, an excess of revertant colonies over the control signals mutagenicity.

Data set [10] in a line: Mutagenicity in Salmonella typhimurium TA98 assessed as mutagenic index at 17.30 uM/plate after 48 hrs in presence of S9 fraction by Ames test relative to control. To be noted: salmonella enterica subsp. enterica serovar typhimurium, s9, 48 h, 17.3 µM. The format is toxicity, subcellular.
Data set [11] is described as follows: Mutagenicity in Salmonella typhimurium TA98 assessed as mutagenic index at 8.65 uM/plate after 48 hrs in absence of S9 fraction by Ames test relative to control. It counts as toxicity. To be noted: salmonella enterica subsp. enterica serovar typhimurium, s9, 48 h.
The nature of data set [12]: Mutagenicity in Salmonella typhimurium TA98 assessed as mutagenic index at 50 uM/plate after 48 hrs in absence of S9 fraction by Ames test relative to control. The format is toxicity. To be noted: salmonella enterica subsp. enterica serovar typhimurium, s9, 48 h.
The nature of data set [13]: Mutagenicity in Salmonella typhimurium TA100 assessed as mutagenic index at 17.30 uM/plate after 48 hrs in presence of S9 fraction by Ames test relative to control. It counts as toxicity, subcellular. To be noted: salmonella enterica subsp. enterica serovar typhimurium, s9, 48 h, 17.3 µM.
Data set [14] can be described thus: Mutagenicity in Salmonella typhimurium TA100 assessed as mutagenic index at 50 uM/plate after 48 hrs in absence of S9 fraction by Ames test relative to control. It counts as toxicity. To be noted: salmonella enterica subsp. enterica serovar typhimurium, s9, 48 h.
Data set [15] is described as follows: Mutagenicity in Salmonella typhimurium TA102 assessed as mutagenic index at 8.65 uM/plate after 48 hrs in presence of S9 fraction by Ames test relative to control. The settings on record: salmonella enterica subsp. enterica serovar typhimurium, s9, 48 h. It counts as toxicity, subcellular.
A short description of data set [16]: Mutagenicity in Salmonella typhimurium TA102 assessed as mutagenic index at 17.30 uM/plate after 48 hrs in presence of S9 fraction by Ames test relative to control. The settings on record: salmonella enterica subsp. enterica serovar typhimurium, s9, 48 h, 17.3 µM. The format is toxicity, subcellular.
Data set [17] can be described thus: Mutagenicity in Salmonella typhimurium TA102 assessed as mutagenic index at 17.30 uM/plate after 48 hrs in absence of S9 fraction by Ames test relative to control. It counts as toxicity. To be noted: salmonella enterica subsp. enterica serovar typhimurium, s9, 48 h, 17.3 µM.
Data set [18] can be described thus: Mutagenicity in Salmonella typhimurium TA102 assessed as mutagenic index at 34.60 uM/plate after 48 hrs in absence of S9 fraction by Ames test relative to control. It counts as toxicity. The settings on record: salmonella enterica subsp. enterica serovar typhimurium, s9, 48 h, 34.6 µM.
Data set [19] is described as follows: Genotoxicity in BALB/c mouse blood at 300 mg/kg after 48 hrs by micronucleus assay. The format is toxicity, organism-based. The settings on record: in vivo.
The nature of data set [20]: Acute toxicity in BALB/c mouse assessed as increase in body weight at 2000 mg/kg, ig after 14 days (reference value: 13.3 +/- 0.3g). The format is organism-based. The settings on record: in vivo, po, 336 h.
For data set [21], the system named is Rattus norvegicus. Kind of data set: Antidiabetic activity in STZ-induced diabetic Wistar rat assessed as increase in body weight at 15 mg/kg, po administered for 15 days post STZ challenge measured on day 21. The format is functional.

As to `CC(=O)O[C@@H]1c2c(ccc3ccc(=O)oc23)OC(C)(C)[C@@H]1OC(C)=O` (relative stereo) [QUIANHUCOUMARIN D], the Activity in the data set with Rattus norvegicus [1] was 365.1 g; in the data set with Rattus norvegicus [2], 280.7 mg/dL; in the data set with Rattus norvegicus [3], 0.51 mg/dL; in the data set with Rattus norvegicus [4] it was 70.84 mg/dL; in data set [5] it was “Non-Toxic”; in data set [6], “Non-Toxic”. In addition, the Activity in the data set on Rattus norvegicus [7] is recorded as 0.73 U/min; in [19], “Non-Toxic”; in [20], 13 g; in the data set on Rattus norvegicus [21] it was 45.7 g. Moreover, in the data set with Rattus norvegicus [8], the result was Active. Besides, the Ratio in data set [9] is 1.1; in data set [10], 1.2; in data set [11], 0.7; in data set [12], 1.1; in data set [13] it was 0.9; in data set [14], 0.9. The Ratio in [15] is 0.8; in data set [16], 1.2; in data set [17], 0.7; in data set [18] it was 1.
